Measurements: US6133266A, “3,4-disubstituted phenylethanolaminotetralincarboxamide derivatives” (Kissei Pharmaceutical Co., Ltd., priority 1996, dated 2000)
Where a name gives a salt, the structure may show the parent alone.

Experiments:
[1] = target: T1, β2 -adrenergic receptor (Rattus norvegicus, UniProt P10608); experiment: Action of drugs on the spontaneous contractions of isolated myometria (isolated rat pregnant uterus); format: cell-based; conditions: isolated pregnant SD rat uterus (pregnancy day 21), Magnus method, 37° C.; read-out: EC50, activity to relax 50% of the spontaneous contractions of rat myometrium
T1 construct: longitudinal uterine muscle strips (about 15 mm in length and about 5 mm in width); from tissue; host or cells: longitudinal uterine muscle strips of pregnant SD rat (day 21)
T1 sequence (P10608 whole entry): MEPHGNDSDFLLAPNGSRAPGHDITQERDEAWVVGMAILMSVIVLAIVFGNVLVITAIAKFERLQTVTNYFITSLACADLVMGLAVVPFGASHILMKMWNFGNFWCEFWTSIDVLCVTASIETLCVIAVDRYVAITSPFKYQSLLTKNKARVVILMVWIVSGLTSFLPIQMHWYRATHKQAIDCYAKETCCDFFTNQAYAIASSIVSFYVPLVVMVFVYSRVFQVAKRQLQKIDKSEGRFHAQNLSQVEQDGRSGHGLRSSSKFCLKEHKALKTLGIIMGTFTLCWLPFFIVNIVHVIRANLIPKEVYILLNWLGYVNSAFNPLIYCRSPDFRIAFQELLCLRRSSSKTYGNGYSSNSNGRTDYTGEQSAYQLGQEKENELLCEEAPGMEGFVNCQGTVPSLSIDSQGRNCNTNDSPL
Description: Thus, the compounds of the present invention have markedly potent β2 -adrenergic receptor stimulating effect and therefore are remarkably useful as β2 -adrenergic receptor stimulating agents.
Action of drugs on the spontaneous contractions of isolated myometria
The uterus of a pregnant SD rat (pregnancy day of 21) was isolated and longitudinal uterine muscle strips (about 15 mm in length and about 5 mm in width) free from the basal plate were prepared. The experiment was conducted according to the Magnus method. The preparations were mounted with a tension of 1 g in Locke-Ringer solution maintained at 37° C. and gassed with a mixture of 95% of oxygen and 5% of carbon dioxide. Spontaneous contractions of the myometrium were induced isometrically via a pressure transducer and recorded on a rectigram. The efficacy was evaluated by comparing the total degree of uterine contraction during 5 minutes before the addition of the drug with the total degree of uterine contraction during 5 minutes after the addition of the drug and calculating the 50% inhibitory concentration as EC50.

[2] = system: β1 -adrenergic receptor; experiment: Action of drugs on the atrial contractions of isolated atria (isolated rat atrium); format: cell-based; conditions: isolated atria of SD male rats, Magnus method, 37° C.
Description: Thus, the compounds of the present invention have markedly weak β1 -adrenergic receptor stimulating effect in comparison with the aforementioned β2 -adrenergic receptor stimulating effect.
Action of drugs on the atrial contractions of isolated atria The atria of SD male rats (350 to 400 g in body weight) were isolated and the experiment was conducted according to the Magnus method. The preparations were mounted with a tension of 1 g in Krebs-Henseleit solution maintained at 37° C. and gassed with a mixture of 95% of oxygen and 5% of carbon dioxide. The atrial contraction was induced isometrically via a pressure transducer and recorded on a rectigram. After addition of the drug, its efficacy was evaluated by calculating EC20 value which is the drug concentration which increases 20 beats per minute of heart rate.

[3] = system: male ICR mice; experiment: Acute toxicity; format: in vivo; conditions: 5 male ICR mice, intravenously in saline, 20 mg/kg, during 24 hours after the administration
Description: To 5 male ICR mice of 4 weeks age was administered intravenously 2-[(2S)-2-[[(2R)-2-hydroxy-2-(4-hydroxy-3hydroxymethylphenyl)ethyl]amino]- 1,2,3,4-tetrahydronaphthalen-7-yloxy]-N,N-dimethylacetamide 0.5 sulfate in saline at dose of 20 mg/kg.

Structure (SMILES)	EC50 [1]	EC20 value, activity to increase 20 beats per minute of rat heart rate [2]	death of animals [3]
CN(C)C(=O)COc1ccc2c(c1)C[C@@H](NC[C@H](O)c1ccc(O)c(CO)c1)CC2 [Compound 6, (-)-2-[(2S)-2-[[(2R)-2-Hydroxy-2-(4-hydroxy-3-hydroxymethylphenyl)ethyl]amino]-1,2,3,4-tetrahydronaphthalen-7-yloxy]-N,N-dimethylacetamide]	2.6 nM	9.4×10^-7 mol concentration	
CN(C)C(=O)COc1ccc2c(c1)C[C@@H](NCC(O)c1ccc(O)c(CO)c1)CC2 (mixture of isomers) [Compound 1, 2-[(2S)-2-[[(2RS)-2-Hydroxy-2-(4-hydroxy-3-hydroxymethylphenyl)ethyl]amino]-1,2,3,4-tetrahydronaphthalen-7yloxy]-N,N-dimethylacetamide]	5.3 nM	2.5×10^-6 mol concentration	
CN(C)C(=O)COc1ccc2c(c1)C[C@@H](NC[C@H](O)c1ccc(O)c(CO)c1)CC2 [Compound 19, (-)-2-[(2S)-2-[[(2R)-2-Hydroxy-2-(4-hydroxy-3-hydroxymethylphenyl)ethyl]amino]-1,2,3,4-tetrahydronaphthalen-7-yloxy]-N,N-dimethylacetamide 0.5 sulfate]			No death of animals was observed
